Experimental data from paper PMC9925557, “Anti-inflammatory effects of new human histamine H3 receptor ligands with flavonoid structure on BV-2 neuroinflammation” (Inflammation Research, 2022).

Experiments:
[1] = target: T1, human histamine H4 receptor (Homo sapiens, UniProt Q9H3N8); assay: [3H]Histamine radioligand binding, Sf9 cells transiently expressing hH4R; details: for Selectivity Ki (H4R)/Ki (H3R): hH3R over hH4R
T1 construct: expressed in transfected cells; host or cells: Sf9
Experimental: (§1) Radioligand binding studies, using CHO-K1 cells stably expressing the H1R or Sf9 cells transiently expressing the H4R were performed as described previously. [^3H]Pyrilamine (H1R) and [^3H]histamine (H4R) were used as radiolignads. Affinities were determined using at least five different concentrations of tested compounds in triplicate independent experiments.

[2] = system: BV-2 cells; assay: ELISA of pro-inflammatory cytokines released by LPS-activated BV-2 cells; assay type: cell-based, murine; details: for Inhibitory activity on pro-inflammatory cytokine production: LPS-stimulated BV-2 cells, data not shown
Experimental: The concentrations of IL-1β, IL-6, TNF-α, the main inflammatory cytokines, were analysed using commercial ELISA kits (IL-6 ELISA kit, ADI-900–045, TNF-α ELISA kit, ADI-900–047, Enzo, Mouse IL-1 beta ELISA kit, Invitrogen) according to the manufacturer’s instructions. Briefly, at the end of 24 h of incubation with tested compounds, cell culture plates were centrifuged to remove cell debris from the supernatants. Culture medium was collected in Eppendorf tubes and frozen at −80 °C until further analysis.
Fig. 8 Effect of compound IIIc on the production of proinflammatory cytokines by LPS-activated BV-2 cells.

[3] = target: T2, human H3 receptor (Homo sapiens, UniProt Q9Y5N1); assay: [3H]Nα-methylhistamine radioligand binding, CHO-K1 cells stably expressing hH3R
T2 construct: expressed in transfected cells; host or cells: CHO-K1
Experimental: Radioligand binding studies were conducted using CHO-K1 cells stably transfected with the human H3 receptor as we described previously. All assays were carried out in duplicates. [^3H]-N-α-methylhistamine was used as radioligand and (R)(-)-α-methylhistamine was used to define nonspecific binding. Radioactivity was counted in MicroBeta2 scintillation counter (PerkinElmer). Data were fitted to a one-site curve-fitting equation with Prism 6 (GraphPad Software) and Ki values were estimated from the Cheng − Prusoff equation.
Compounds IIIa–IIIc were tested for affinity for human H3R (hH3R) in a radioligand binding assay with N^α-methylhistamine as a radioligand in CHO K1 cells stably expressing hH3R. Results are presented as Ki values with SEM (Table 2). […] However, it is still a very active compound. The affinity for hH3R (stably expressed in HEK293 cells) of compound E243 was recently described.

[4] = target: T3, human histamine H1 receptor (Homo sapiens, UniProt P35367); assay: [3H]Pyrilamine radioligand binding, CHO-K1 cells stably expressing hH1R; details: for Selectivity Ki (H1R)/Ki (H3R): hH3R over hH1R
T3 construct: expressed in transfected cells; host or cells: CHO-K1
Experimental: as §1

[5] = system: BV-2 cells; assay: Griess assay (NO/nitrite level) in LPS-treated BV-2 cells; assay type: cell-based, murine; details: 6.25 μM, 1 h pretreatment, then 1 μg/ml LPS for 24 h
Experimental: The Griess assay is a colorimetric assay to measure the levels of nitrite (NO2^−) which is one of the primary and stable metabolites of NO. Griess reagent (Sigma-Aldrich, Saint Louis, MO, USA, G4410) was freshly prepared according to the manufacturer's instructions, that is, 1 g was dissolved in ultrapure water and mixed by inversion for about 4 min. For measuring nitric oxide, after an appropriate incubation time, 100 μl of culture medium was transferred to a transparent 96-well plate and mixed with the same volume of Griess reagent. The plate was incubated for 15 min at room temperature and the absorbance was read at 540 nm using the EnSpire microplate reader (PerkinElmer, Massachusetts, USA). Data were analysed by direct comparison based on the average absorbance of LPS treatment, compound treatment or co-treatment with LPS, performed by normalizing treated cells (compound alone or co-treatment with LPS) to LPS-treated cells set as 100%.
(§2) To establish an experimental model of neuroinflammation in vitro, BV-2 cells were cultured in a 96-well plate (2 × 10^4 cells/200 μl/per well) and a 24-well plate (15 × 10^4 cells/500 μl/well) for the MTS assay and the Griess assay or the RT-qPCR experiment, respectively. BV-2 cells were treated for 24 h, 45 h and 69 h with the increasing concentration of LPS (Sigma-Aldrich, Saint Louis, MO, USA, L4391): 0.001; 0.01; 0.1; 1 [μg/ml]. Following LPS stimulation, at each time point, 100 μl of culture medium from each sample was transferred to another plate and mixed with an equal volume of Griess reagent. Simultaneously, on the plate with cells, cell viability was assessed by adding 20 μl of MTS reagent. The cells cultured on a 24-well plate were used for assessing the expression levels of proinflammatory cytokines (IL-1β, IL-6, TNF-α) by RT-qPCR.
Fig. 6 The effect of the compounds tested (E243 and IIIa–IIIc) on nitric oxide (NO) production in BV-2 cells assessed by the Griess assay. BV-2 cells were pretreated for 1 h with indicated compounds at the concentration of 6.25 μM, followed by stimulation with 1 μg/ml LPS for 24 h. Data are expressed as mean ± SEM of two independent experiments, each of which consisted of eight replicates per treatment group and is expressed as a percentage of NO production versus cells treated with LPS (set at 100%). […] Data indicated with ***p < 0.001 (versus vehicle-treated cells) reflect statistically significant differences between the control and experimental groups

[6] = system: BV-2 cells; assay: MTS cell viability assay; assay type: cell-based, murine; details: Mus musculus, 24 h exposure, mean ± SD, read-out: IC50 (inhibition of cell viability)
Experimental: The murine microglial BV-2 cell line was purchased from the Interlab Cell Line Collection (ICLC) cell bank (Genova, Italy). The BV-2 cells were cultured in DMEM/F12 medium (Lonza, BioWhittaker, Walkersville, MD USA, 12-719F) containing 10% of heat-inactivated fetal bovine serum (FBS, Gibco, 10,500–064) in a humidified incubator containing 95% air and 5% CO2 at 37 °C. BV-2 cells were used for experiments at passages 3 to 11. In all experiments, the concentration of FBS was reduced to 5%.
BV-2 cells (2 × 10^4 cells/100 μl/well) were cultured in transparent 96-well plates (TPP, Trasadingen, Switzerland) in DMEM/F12 supplemented with 5% FBS in the presence of dimethylsulfoxide (DMSO ≤ 0.1%, vehicle control, Veh) or increasing doses of tested compounds (0.78 × 10^–6 – 50 × 10^–6 M). Compound treatment was performed for 24 h. After the incubation time, cell viability was examined using an MTS-based [3-(4,5-dimethylthiazol-2-yl)-5-(3-carboxymethoxyphenyl)-2-(4-sulfophenyl)-2 H tetrazolium] CellTiter96® AQueous One Solution Cell Proliferation Assay (Promega, Madison, USA) following the manufacturer’s protocol. Briefly, 20 μl of MTS solution was pipetted into each well containing 100 μl of culture or culture medium without cells (blank control), mixed well and incubated at 37 °C for 55 min. After the appropriate time, the absorbance was measured at 490 nm using the EnSpire microplate reader (PerkinElmer, Massachusetts, USA). IC50 values were calculated with non-linear regression fit to a sigmoidal dose–response curve (log of compound concentration versus normalized response) using GraphPad Prism (v. 4.0.3).
as §2
To avoid the toxic effect of H3R ligands in subsequent studies, an MTS assay was performed to investigate cell viability. BV-2 cells were cultured for 24 h in the presence of an increasing concentration of compounds E243 and IIIa–IIIc (twofold dilutions covered the range from 0.78 × 10^–6 to 50 × 10^–6 M). […]

[7] = system: BV-2 cells; assay: RT-qPCR of pro-inflammatory cytokine mRNA in LPS-activated BV-2 cells; details: 6.25 μM, 1 h pretreatment, LPS 1 μg/ml 24 h; on average
[8] = system: neuroblastoma SH-SY5Y cells; details: 1 µM, 24 h pre-treatment; H2O2 (300 μM) and okadaic acid (50 nM); ref 2nd International Conference on Neuroprotection by Drugs, Nutraceuticals and Physical Activity, 9–10 Dec 2021; cited from earlier work
[9] = system: equine BuChE; design: method as in PMID 31669851; details: cited from earlier work
[10] = system: electric eel AChE; design: method as in PMID 31669851; details: cited from earlier work
[11] = system: human AChE; design: method as in PMID 31669851; details: cited from earlier work
[12] = 6.25 μM, 1 h pretreatment, LPS 1 μg/ml 24 h

T2 sequence (Q9Y5N1 whole entry): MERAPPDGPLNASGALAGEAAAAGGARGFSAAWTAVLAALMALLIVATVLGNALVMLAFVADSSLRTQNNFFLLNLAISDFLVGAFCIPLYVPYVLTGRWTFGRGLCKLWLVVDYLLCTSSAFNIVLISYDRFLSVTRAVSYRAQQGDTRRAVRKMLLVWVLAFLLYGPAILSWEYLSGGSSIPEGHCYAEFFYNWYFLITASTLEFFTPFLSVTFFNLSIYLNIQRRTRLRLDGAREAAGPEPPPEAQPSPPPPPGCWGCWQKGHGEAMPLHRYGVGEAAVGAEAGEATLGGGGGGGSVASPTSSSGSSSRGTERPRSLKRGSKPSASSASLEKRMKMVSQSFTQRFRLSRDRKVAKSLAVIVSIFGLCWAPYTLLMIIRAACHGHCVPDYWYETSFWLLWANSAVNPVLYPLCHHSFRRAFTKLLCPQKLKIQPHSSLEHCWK
T1 sequence (Q9H3N8 whole entry): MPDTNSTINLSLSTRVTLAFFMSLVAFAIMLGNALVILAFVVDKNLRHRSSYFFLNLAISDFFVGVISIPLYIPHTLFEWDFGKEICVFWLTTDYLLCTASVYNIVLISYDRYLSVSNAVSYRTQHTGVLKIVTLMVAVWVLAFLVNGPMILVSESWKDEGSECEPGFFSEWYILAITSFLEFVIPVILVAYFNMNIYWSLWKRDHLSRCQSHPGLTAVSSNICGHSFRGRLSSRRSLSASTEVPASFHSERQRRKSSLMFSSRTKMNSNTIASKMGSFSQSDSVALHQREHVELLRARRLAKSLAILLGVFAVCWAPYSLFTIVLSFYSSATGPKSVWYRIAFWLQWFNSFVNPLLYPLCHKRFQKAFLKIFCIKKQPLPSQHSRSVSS
T3 sequence (P35367 whole entry): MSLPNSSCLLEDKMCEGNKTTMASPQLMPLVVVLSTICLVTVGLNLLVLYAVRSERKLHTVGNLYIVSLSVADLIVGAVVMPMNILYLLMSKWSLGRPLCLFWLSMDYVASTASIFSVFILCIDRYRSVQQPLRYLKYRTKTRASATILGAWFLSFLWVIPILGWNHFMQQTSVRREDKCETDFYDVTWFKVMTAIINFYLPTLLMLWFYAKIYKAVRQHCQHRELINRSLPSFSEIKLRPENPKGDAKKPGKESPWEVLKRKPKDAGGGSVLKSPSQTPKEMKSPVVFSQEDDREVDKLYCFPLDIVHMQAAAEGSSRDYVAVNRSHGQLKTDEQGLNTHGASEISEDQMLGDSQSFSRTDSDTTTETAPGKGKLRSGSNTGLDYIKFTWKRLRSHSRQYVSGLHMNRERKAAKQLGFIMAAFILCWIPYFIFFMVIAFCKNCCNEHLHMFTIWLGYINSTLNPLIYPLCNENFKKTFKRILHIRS

Compound	Ki [1] [nM]	Selectivity Ki (H4R)/Ki (H3R) [1]	Inhibitory activity on pro-inflammatory cytokine production [2]	Ki [3] [nM]	Ki [4] [nM]	Selectivity Ki (H1R)/Ki (H3R) [4]	Reduction of NO level compared to LPS treated cells [5] [%]	melting point [°C]	IC50 [6] [nM]	IL-1β mRNA level, times lower than induced by LPS alone [7] [times]	TNF-α mRNA level, times lower than induced by LPS alone [7] [times]	Release of IL-1β compared to LPS-stimulated BV-2 cells [2, 12]	Release of IL-6 compared to LPS-stimulated BV-2 cells [2, 12]	Release of TNF-α compared to LPS-stimulated BV-2 cells [2, 12]	Prevention of ROS production, times compared to neurotoxin-treated cells [8] [times]	IC50 [9] [nM]	IC50 [10] [nM]	IC50 [11] [nM]
COc1ccc(/C=C/C(=O)c2ccc(OCCCN3CCCCC3)cc2)cc1OC.Cl [IIIb, (E)-3-(3,4-Dimethoxyphenyl)-1-(4-(3-(piperidin-1-yl)propoxy)phenyl)prop-2-en-1-one hydrogen chloride]	12500	> 1300	have not shown inhibitory activity	9.6 ± 0.2	1080	> 112	~30	173 to 176	26700 ± 3480	–	–	–	–	–	–	–	–	–
COc1ccc(/C=C/C(=O)c2ccc(OCCCN3CCCCC3)cc2)cc1.Cl [IIIa, (E)-3-(4-Methoxyphenyl)-1-(4-(3-(piperidin-1-yl)propoxy)phenyl)prop-2-en-1-one hydrogen chloride]	–	–	have not shown inhibitory activity	14 ± 0.2	–	–	~30	174 to 177	21200 ± 1980	–	–	–	–	–	–	–	–	–
COc1cc(/C=C/C(=O)c2ccc(OCCCN3CCCCC3)cc2)cc(OC)c1OC.Cl [IIIc, (E)-3-(3,4,5-Trimethoxyphenyl)-1-(4-(3-(piperidin-1-yl)propoxy)phenyl)prop-2-en-1-one hydrogen chloride]	2820	> 117	–	24 ± 1.1	2700	> 112	61	–	11300 ± 3260	~2	~3	significantly lower	significantly lower	significantly lower	–	–	–	–
Cc1ccc2oc(-c3ccc(OCCCCCCN4CCCCC4)cc3)cc(=O)c2c1 [Compound E243]	4440	> 19	–	–	1310 ± 128	> 5	~30	–	53500 ± 5560	–	–	–	–	–	~2	758	501	360
